Consider 39 compounds from BindingDB's records for patent WO2025049746 (Eikon Therapeutics, 2025).

As usually defined, the IC50 is the midpoint of a concentration-inhibition curve.

The target of assay [1] is Bifunctional 3'-5' exonuclease/ATP-dependent helicase WRN (Homo sapiens, UniProt Q14191). The assay can be described thus: ADP-Glo Kinase Assay. How it is done:
ATPase activity was measured using the ADP-Glo Kinase Assay following the manufacturers recommended protocol.
(ADP-Glo first removes unused ATP, then detects ADP through luciferase.)

Assay [2] addresses T1, Bifunctional 3'-5' exonuclease/ATP-dependent helicase WRN [480-1251] (UniProt Q14191).
T1 construct: 480-1251
The assay can be described thus: Biochemical Activity Assays.

T1 sequence (Q14191 480-1251): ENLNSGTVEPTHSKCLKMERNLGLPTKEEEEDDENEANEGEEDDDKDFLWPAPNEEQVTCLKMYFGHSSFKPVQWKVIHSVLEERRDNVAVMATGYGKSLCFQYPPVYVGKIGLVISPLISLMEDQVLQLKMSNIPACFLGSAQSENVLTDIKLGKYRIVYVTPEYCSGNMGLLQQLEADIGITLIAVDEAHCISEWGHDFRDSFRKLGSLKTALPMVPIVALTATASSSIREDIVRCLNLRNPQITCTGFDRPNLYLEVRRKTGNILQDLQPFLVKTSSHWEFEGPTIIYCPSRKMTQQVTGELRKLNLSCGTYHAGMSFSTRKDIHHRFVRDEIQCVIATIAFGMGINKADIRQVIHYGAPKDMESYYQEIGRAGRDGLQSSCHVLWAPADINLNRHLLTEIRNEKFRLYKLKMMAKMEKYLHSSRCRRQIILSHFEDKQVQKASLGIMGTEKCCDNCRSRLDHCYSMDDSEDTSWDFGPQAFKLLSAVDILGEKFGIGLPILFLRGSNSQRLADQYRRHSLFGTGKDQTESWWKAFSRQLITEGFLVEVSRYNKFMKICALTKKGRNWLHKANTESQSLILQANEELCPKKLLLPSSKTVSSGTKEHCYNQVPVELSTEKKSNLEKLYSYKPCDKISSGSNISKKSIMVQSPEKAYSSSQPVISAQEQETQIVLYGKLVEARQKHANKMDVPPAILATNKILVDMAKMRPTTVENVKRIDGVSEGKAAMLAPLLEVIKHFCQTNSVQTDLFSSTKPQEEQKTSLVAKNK
Sequence of Bifunctional 3'-5' exonuclease/ATP-dependent helicase WRN (Q14191 whole entry): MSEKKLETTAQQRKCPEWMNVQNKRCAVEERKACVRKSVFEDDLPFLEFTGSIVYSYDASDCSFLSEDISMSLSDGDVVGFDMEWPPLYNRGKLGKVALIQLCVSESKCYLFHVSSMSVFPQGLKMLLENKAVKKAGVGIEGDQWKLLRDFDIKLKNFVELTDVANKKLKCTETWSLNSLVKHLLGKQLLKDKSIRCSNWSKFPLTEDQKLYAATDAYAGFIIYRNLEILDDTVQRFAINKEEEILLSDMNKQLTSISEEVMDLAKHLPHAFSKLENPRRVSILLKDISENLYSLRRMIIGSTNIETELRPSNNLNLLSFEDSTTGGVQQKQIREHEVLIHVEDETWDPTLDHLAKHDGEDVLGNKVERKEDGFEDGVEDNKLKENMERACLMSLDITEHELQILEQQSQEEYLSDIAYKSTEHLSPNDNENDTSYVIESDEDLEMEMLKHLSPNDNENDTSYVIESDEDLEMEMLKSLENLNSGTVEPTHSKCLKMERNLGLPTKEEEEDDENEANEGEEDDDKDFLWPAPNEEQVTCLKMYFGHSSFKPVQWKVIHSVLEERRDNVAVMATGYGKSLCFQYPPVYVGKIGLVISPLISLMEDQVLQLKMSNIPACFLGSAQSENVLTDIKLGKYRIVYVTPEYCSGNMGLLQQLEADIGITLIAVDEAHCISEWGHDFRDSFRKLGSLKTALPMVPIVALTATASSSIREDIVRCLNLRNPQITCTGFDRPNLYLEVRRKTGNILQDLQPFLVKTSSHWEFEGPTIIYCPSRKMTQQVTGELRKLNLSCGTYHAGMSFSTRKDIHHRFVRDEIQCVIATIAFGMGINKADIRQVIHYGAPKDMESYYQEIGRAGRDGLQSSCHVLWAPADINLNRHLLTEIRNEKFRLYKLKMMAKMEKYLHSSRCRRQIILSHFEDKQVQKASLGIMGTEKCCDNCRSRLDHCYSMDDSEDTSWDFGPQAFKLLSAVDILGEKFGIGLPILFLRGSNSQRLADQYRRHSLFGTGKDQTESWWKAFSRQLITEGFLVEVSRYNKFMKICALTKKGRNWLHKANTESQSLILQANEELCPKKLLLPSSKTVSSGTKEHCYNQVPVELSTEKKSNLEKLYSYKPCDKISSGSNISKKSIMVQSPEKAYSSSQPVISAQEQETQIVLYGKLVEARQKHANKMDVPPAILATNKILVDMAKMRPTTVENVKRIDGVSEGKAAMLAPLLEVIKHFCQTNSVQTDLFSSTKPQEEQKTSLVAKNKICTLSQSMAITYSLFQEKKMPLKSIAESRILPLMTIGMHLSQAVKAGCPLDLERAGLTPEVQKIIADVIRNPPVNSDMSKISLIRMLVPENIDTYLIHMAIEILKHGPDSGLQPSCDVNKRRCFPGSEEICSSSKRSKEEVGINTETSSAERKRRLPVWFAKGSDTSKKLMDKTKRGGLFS

Regarding `CCc1c(N2CCCC3C2CCN3C(=O)c2ncnc(C)c2O)c(=O)n2nc(C3=CCOCC3)nc2n1CC(=O)Nc1ccc(C(F)(F)F)cc1Cl` (stereo not drawn) [WO2025049746, Example 345], the half-maximal inhibitory concentration (IC50) in assay [1] turned out to be 7450 nM; in assay [2] it was 29700 nM.

`CCc1c(N2CCN(C(=O)c3ncnc(C)c3O)CC2)c(=O)n2nc(-c3cccc4c3OCCC4)nc2n1CC(=O)Nc1ccc(C(F)(F)F)cc1Cl` [WO2025049746, Example 160]: the values for the concentration for half-maximal inhibition (IC50) in assay [1] and in assay [2] were 51 nM and 34 nM, respectively.

On to `CCc1c(N2CCN(C(=O)c3ncnc(C)c3O)CC2)c(=O)n2nc(-c3cccc4c3OCC4)nc2n1CC(=O)Nc1ccc(C(F)(F)F)cc1Cl` [WO2025049746, Example 158], for which the figures for the IC50 in assay [1] and in assay [2] were 71 nM and 49 nM, respectively.

Turning to `CCc1c(N2CCN(C(=O)c3ncnc(C)c3O)CC2)c(=O)n2nc(-c3ccc4c(c3)c(C)nn4C)nc2n1CC(=O)Nc1ccc(C(F)(F)F)cc1Cl` [WO2025049746, Example 312], the concentration for half-maximal inhibition (IC50) in assay [1] was found to be 35 nM; in assay [2] it was 37 nM.

Regarding `CCc1c(N2CCN(C(=O)c3ncnc(C)c3O)CC2)c(=O)n2nc(-c3ccc4nn(C)nc4c3)nc2n1CC(=O)Nc1ccc(C(F)(F)F)cc1Cl` [WO2025049746, Example 301], the half-maximal inhibitory concentration (IC50) in assay [1] was determined as 33 nM; in assay [2], 35 nM.

For `CCc1c(N2CCN(C(C)=O)CC2)c(=O)n2nc(-c3ccc4c(c3)OCO4)nc2n1CC(=O)Nc1ccc(C(F)(F)F)cc1Cl` [WO2025049746, Example 89], the half-maximal inhibitory concentration (IC50) amounted to 250 nM in assay [1] and 240 nM in assay [2].

For `CCc1c(N2CCN(C(=O)c3ncnc(C)c3O)CC2)c(=O)n2nc(-c3cccc4c3OCCO4)nc2n1CC(=O)Nc1ccc(C(F)(F)F)c2c1CC2` [WO2025049746, Example 97], the figures for the IC50 in assay [1] and in assay [2] were 19.3 nM and 15.9 nM, respectively.

As for `CCc1c(N2CCN(C(=O)c3ncnc(C)c3O)CC2)c(=O)n2nc(-c3ccc4c(c3)[C@@H](C)OC4)nc2n1CC(=O)Nc1ccc(C(F)(F)F)cc1Cl` [WO2025049746, Example 190], the values for the 50% inhibitory concentration (IC50) in assay [1] and in assay [2] were 38 nM and 30 nM, respectively.

As for `CCc1c(N2CCN(C(=O)c3ncnc(C)c3O)CC2)c(=O)n2nc(-c3ccc4c(c3)COC4)nc2n1CC(=O)Nc1ccc(C2(C(F)(F)F)CC2)cc1Cl` [WO2025049746, Example 420], the 50% inhibitory concentration (IC50) amounted to 100 nM in assay [1] and 65 nM in assay [2].

`CCc1c(N2CCN(C(=O)c3ncnc(C)c3O)CC2)c(=O)n2nc(-c3cc(C)c4c(c3)CCO4)nc2n1CC(=O)Nc1ccc(C(F)(F)F)cc1Cl` [WO2025049746, Example 171]: the results for the 50% inhibitory concentration (IC50) in assay [1] and in assay [2] were 58 nM and 42 nM, respectively.

Turning to `CCc1c(N2CCN(C(=O)c3ncnc(C)c3O)CC2)c(=O)n2nc(-c3ccc4c(c3)C(C)(C)OC4(C)C)nc2n1CC(=O)Nc1ccc(C(F)(F)F)cc1Cl` [WO2025049746, Example 172], the IC50 in assay [1] stood at 124 nM; in assay [2], 87 nM.

For the compound `CCc1c(N2CCN(C(=O)c3nsc(N4CCOCC4)c3O)CC2)c(=O)n2nc(-c3ccc4c(c3)COC4)nc2n1CC(=O)Nc1ccc(C(F)(F)F)cc1Cl` [WO2025049746, Example 445], the IC50 in assay [1] amounted to 72 nM; in assay [2], 70 nM.

Turning to `C=C(c1ccc(NC(=O)Cn2c(CC)c(N3CCN(C(=O)c4ncnc(C)c4O)CC3)c(=O)n3nc(-c4ccc5c(c4)COC5)nc23)c(Cl)c1)C(F)(F)F` [WO2025049746, Example 419], the half-maximal inhibitory concentration (IC50) amounted to 54 nM in assay [1] and 39 nM in assay [2].

As to `CCc1c(N2CCN(C(=O)c3cncc4cc[nH]c34)CC2)c(=O)n2nc(C3=CCOCC3)nc2n1CC(=O)Nc1ccc(C(F)(F)F)cc1Cl` [WO2025049746, Example 47], the IC50 in assay [1] came to 31.8 nM; in assay [2], 23.9 nM.

Regarding `CCc1c(N2CCN(C(=O)c3ncnc(C)c3O)CC2)c(=O)n2nc(C3=CCOCC3)nc2n1CC(=O)Nc1ccc(C(F)(F)C(F)(F)Cl)cc1` [WO2025049746, Example 71], the IC50 in assay [1] amounted to 26.1 nM; in assay [2], 18.8 nM.

On to `CCc1c(N2CC[C@@H]3[C@@H]2CCCN3C(=O)c2ncnc(C)c2O)c(=O)n2nc(-c3ccc4c(c3)COC4)nc2n1CC(=O)Nc1ccc(C(F)(F)F)cc1Cl` [WO2025049746, Example 438], for which the results for the IC50 in assay [1] and in assay [2] were 25 nM and 28 nM, respectively.

In the case of `CCc1c(N2CCN(C(=O)c3ncnc(C)c3O)CC2)c(=O)n2nc(-c3cccc4c3COCC4)nc2n1CC(=O)Nc1ccc(C(F)(F)F)cc1Cl` [WO2025049746, Example 5], the IC50 was 86.9 nM in assay [1] and 59.9 nM in assay [2].

As for `CCc1c(N2CCN(C(=O)c3ncnc(C)c3O)CC2)c(=O)n2nc(-c3ccc4c(c3)[C@@H](C(F)(F)F)OC4)nc2n1CC(=O)Nc1ccc(C(F)(F)F)cc1Cl` [WO2025049746, Example 275], the IC50 in assay [1] is 79 nM; in assay [2], 92 nM.

On to `CCc1c(N2CCN(C(=O)c3ncnc(C)c3O)CC2)c(=O)n2nc(C3=CCOCC3)nc2n1CC(=O)NC12CCC(C(F)(F)F)(CC1)CC2` [WO2025049746, Example 349], for which the values for the IC50 in assay [1] and in assay [2] were 1950 nM and 994 nM, respectively.

With `CCc1c(N2CCN(C(=O)c3ncnc(C)c3O)CC2)c(=O)n2nc(-c3ccc4ncn(C)c(=O)c4c3)nc2n1CC(=O)Nc1ccc(C(F)(F)F)cc1Cl` [WO2025049746, Example 259], the IC50 in assay [1] and in assay [2] was 29 nM in each case.

For `CCc1c(N2CCN(C(=O)c3ncnc(C)c3O)CC2)c(=O)n2nc(C3=CCOCC3)nc2n1CC(=O)Nc1ccc(SC(F)(F)F)cc1Cl` [WO2025049746, Example 364], the half-maximal inhibitory concentration (IC50) in assay [1] came to 36 nM; in assay [2], 30 nM.

For `CCc1c(N2CCN(C(=O)c3ccccc3NS(C)(=O)=O)CC2)c(=O)n2nc(N(C)C)nc2n1CC(=O)Nc1ccc(C(F)(F)F)cc1Cl` [WO2025049746, Example 82], the concentration for half-maximal inhibition (IC50) in assay [1] stood at 58.9 nM; in assay [2], 40.7 nM.

Take `CCc1c(N2CCN(C(C)=O)CC2)c(=O)n2nc(C3=CCOCC3)nc2n1CC(=O)Nc1ccc(C(F)(F)F)cc1Cl` [WO2025049746, Example 52]: the half-inhibitory concentration (IC50) in assay [1] was found to be 39.4 nM; in assay [2], 28.6 nM.

Consider `CCc1c(N2CCN(C(=O)c3ncnc(C)c3O)CC2)c(=O)n2nc(-c3ccc(OCC(=O)O)cc3)nc2n1CC(=O)Nc1ccc(C(F)(F)F)cc1Cl` [WO2025049746, Example 330], for which the figures for the IC50 in assay [1] and in assay [2] were 25 nM and 33 nM, respectively.

On to `CCc1c(N2CCN(C(=O)c3nc4c(cc3O)CCCC4)CC2)c(=O)n2nc(-c3ccc4c(c3)COC4)nc2n1CC(=O)Nc1ccc(C(F)(F)F)cc1Cl` [WO2025049746, Example 423], for which the half-maximal inhibitory concentration (IC50) in assay [1] amounted to 169 nM; in assay [2], 150 nM.

As to `CCCn1cc2cc(-c3nc4n(CC(=O)Nc5ccc(C(F)(F)F)cc5Cl)c(CC)c(N5CCN(C(=O)c6ncnc(C)c6O)CC5)c(=O)n4n3)ccc2n1` [WO2025049746, Example 302], the IC50 in assay [1] was found to be 29 nM; in assay [2], 35 nM.

On to `CCc1c(N2CCN(C(=O)c3ncnc(C)c3O)CC2)c(=O)n2nc(-c3ccn4nc(F)cc4c3)nc2n1CC(=O)Nc1ccc(C(F)(F)F)cc1Cl` [WO2025049746, Example 251], for which the 50% inhibitory concentration (IC50) was 26 nM in assay [1] and 25 nM in assay [2].

For `CCc1c(N2CCN(C(=O)C(F)(F)CO)CC2)c(=O)n2nc(C3=CCOCC3)nc2n1CC(=O)Nc1ccc(C(F)(F)F)cc1Cl` [WO2025049746, Example 56], the IC50 in assay [1] was 737 nM; in assay [2], 139 nM.

Turning to `CCc1c(N2CCN(C(=O)c3ncnc(C)c3O)CC2)c(=O)n2nc(-c3ccc4c(c3)CN(C)C4=O)nc2n1CC(=O)Nc1ccc(C(F)(F)F)cc1Cl` [WO2025049746, Example 185], the IC50 was determined as 32 nM in assay [1] and 26 nM in assay [2].

Regarding `CCc1c(N2CCN(C(=O)c3ncnc(C)c3O)CC2)c(=O)n2nc(-c3ccc4c(c3)CCC4OC(F)F)nc2n1CC(=O)Nc1ccc(C(F)(F)F)cc1Cl` (stereo not drawn) [WO2025049746, Example 227], the IC50 came to 95 nM in assay [1] and 89 nM in assay [2].

With `CCc1c(N2CCN(C(=O)c3ncnc(C)c3O)CC2)c(=O)n2nc(C3=CCOCC3)nc2n1CC(=O)NC1CCC(F)(F)CC1` [WO2025049746, Example 351], the concentration for half-maximal inhibition (IC50) in assay [1] was found to be 3960 nM; in assay [2], 3670 nM.

As to `CCc1c(N2CCN(C(=O)c3ncnc(C)c3O)CC2)c(=O)n2nc(-c3cc4c(cc3F)O[C@H](C)C4)nc2n1CC(=O)Nc1ccc(C(F)(F)F)cc1Cl` [WO2025049746, Example 250], the IC50 stood at 22 nM in assay [1] and 20 nM in assay [2].

On to `CCc1c(N2CCN(C(=O)c3ncnc(C)c3O)CC2)c(=O)n2nc(-c3ccc4c(c3)CCO[C@H]4C)nc2n1CC(=O)Nc1ccc(C(F)(F)F)cc1Cl` [WO2025049746, Example 229], for which the values for the 50% inhibitory concentration (IC50) in assay [1] and in assay [2] were 27 nM and 30 nM, respectively.

Take `CCc1c(N2CCN(C(=O)c3ncnc(C)c3O)CC2)c(=O)n2nc(-c3ccc4c(c3)CCC4(F)F)nc2n1CC(=O)Nc1ccc(C(F)(F)F)cc1Cl` [WO2025049746, Example 187]: the figures for the 50% inhibitory concentration (IC50) in assay [1] and in assay [2] were 170 nM and 75 nM, respectively.

With `CCc1c(N2CCN(C(=O)c3ncnc(C)c3O)CC2)c(=O)n2nc(C3=CCOCC3)nc2n1CC(=O)NC12CC(c3ccc(F)cc3)(C1)C2` [WO2025049746, Example 353], the IC50 in assay [1] is 6860 nM; in assay [2], 29700 nM.

Turning to `CCc1c(N2CCN(C(=O)c3ncnc(C)c3O)CC2)c(=O)n2nc(-c3cc4c(cc3C)COC4)nc2n1CC(=O)Nc1ccc(C(F)(F)F)cc1Cl` [WO2025049746, Example 203], the values for the IC50 in assay [1] and in assay [2] were 79 nM and 56 nM, respectively.

With `CCc1c(N2CCN(C(=O)c3ncnc(C)c3O)CC2)c(=O)n2nc(-c3cc(F)c4c(c3)CCO4)nc2n1CC(=O)Nc1ccc(C(F)(F)F)cc1Cl` [WO2025049746, Example 173], the values for the 50% inhibitory concentration (IC50) in assay [1] and in assay [2] were 36 nM and 28 nM, respectively.

Take `CCc1c(N2CCN(C(=O)c3ncnc(C)c3O)CC2)c(=O)n2nc(-c3ccc4c(c3)CO[C@@H]4C(F)(F)F)nc2n1CC(=O)Nc1ccc(C(F)(F)F)cc1Cl` [WO2025049746, Example 276]: the IC50 in assay [1] turned out to be 72 nM; in assay [2], 85 nM.

As for `CCc1c(N2CCN(C(=O)c3ncnc(C)c3O)CC2)c(=O)n2nc(-c3ccn4c(C)nnc4c3)nc2n1CC(=O)Nc1ccc(C(F)(F)F)cc1Cl` [WO2025049746, Example 246], the IC50 was found to be 37 nM in assay [1] and 42 nM in assay [2].
